Measurements from patent US20260250318A1, “COMPOSITIONS AND METHODS FOR CROSSING THE BLOOD BRAIN BARRIER” (VOYAGER THERAPEUTICS, INC., priority 2022, published 2026).

System: brain
Assay: Maturation of TTM-002 capsid, NGS enrichment in brain of CD-1 Outbred mice
Assay type: in vivo
Conditions: NGS fold-enrichment in the brain of CD-1 Outbred mice; intravenous, 1.0×10^12 VG/dose, 14 days; RNA; relative to non-matured TTM-002 control
From the text: This Example describes maturation of the TTM-001 (SEQ ID NO: 981 (amino acid) and 983 (DNA), comprising SEQ ID NO: 941) and TTM-002 (SEQ ID NO: 982 (amino acid) and 984 (DNA), comprising SEQ ID NO: 2) capsid variants to further enhance their transduction and biodistribution in the central nervous system and evolve the AAV capsid variants to provide further cross-species compatibility. Two approaches were used to mature the TTM-001 and TTM-002 capsid sequences in order to randomize and mutate within and around the peptide insert comprised within loop IV of the capsid variant. […] In the first maturation approach, sets of three contiguous amino acids were randomized across the mutagenesis region in the TTM-001 and TTM-002 sequences, which spanned from position 450 to position 466, numbered according to SEQ ID NO: 981 and 982. In the second maturation approach, mutagenic primers were used to introduce point mutations at a low frequency, scattered across the mutagenesis region in the TTM-001 and TTM-002 sequences ranging from position 449 to position 466, numbered according to SEQ ID NO: 981 and 982. AAV capsid variants arising from each maturation approach for TTM-001 were pooled together and AAV capsid variants arising from each maturation approach for TTM-002 were also pooled together, for subsequent testing and characterization in mice.
The library of pooled matured AAV capsid variants generated from TTM-001 or library of pooled matured AAV capsid variants generated from the TTM-002 matured AAV capsid variant each were intravenously injected into the tail vein of three female CD-1 Outbred mice (Charles River) at a dose of 1.0×10^12 VG/dose. After 14-days in life, the brains of the mice were isolated and RNA was extracted. Following RNA recovery and RT-PCR amplification, a systematic NGS enrichment analysis was performed to calculate the fold enrichment ratio relative to the corresponding TTM-001 or TTM-002 control, and the peptides comprised within the variants were identified. The data for the TTM-001 matured capsid variants is provided in Table 13 and the data for the TTM-002 matured capsid variants is provided in Table 14.

Sequence | Fold enrichment over TTM-002
KADMGHDSPHKSGQNQQT | 2.48
KADQGHDSPHKSGQNQQT | 2.07
KADWGHDSPHKSGQNQQT | 2.32
KADYGHDSPHKSGQNQQT | 2.40
KAEQGHDSPHKSGQNQQT | 2.14
KAEVGHDSPHKSGQNQQT | 2.15
KAEWGHDSPHKSGQNQQT | 2.69
KANNGQDSPHKSGQNQQT | 2.67
KATNGHDSPHKSGLNQQT | 2.10
KCEIGHDSPHKSGQNQQT | 2.10
KCEWGHDSPHKSGQNQQT | 2.68
KCEYGHDSPHKSGQNQQT | 2.36
KDIMGHDSPHKSGQNQQT | 2.23
KFEQGHDSPHKSGQNQQT | 2.22
KHDWGHDSPHKSGQNQQT | 2.00
